Source: patent US12576107B2, “Methods of treating chronic inflammatory diseases” (METIMEDI PHARMACEUTICALS CO., LTD., priority 2018, dated 2026)

Assays:
lactate dehydrogenase A = experiment: Human endothelial cell in vitro experiment, Western blot in HUVEC; format: cell-based; conditions: 2.5 mM, human umbilical vein endothelial cells
Experimental: Human Umbilical Vein Endothelial cell line, HUVEC, was purchased from American Type Culture Collection (Manassas, VA, USA). The HUVEC cells were Endothelial Cell Growth Medium 2 maintained in Endothelial Cell Growth Medium 2 Supplement MIX (PromoCell, Heidelberg, Germany)
(§1) To prepare whole cell lysate, cells were lysed with lysis buffer (1% NP-40, 0.25% sodium deoxycholate, 150 mM NaCl, 1 mM EDTA, 1% Triton X-100, 50 mM Tris-HCl (pH 7.4), 10% Glycerol) with protease inhibitor cocktail (Roche, Basel, Switzerland) and phosphatase inhibitors (NA3VO4 1 mM, NaF 100 mM). Then, protein concentration was measured using the Bicinchoninic acid (BCA) assay kit (Thermo Scientific, Waltham, MA). Whole cell or nuclear lysates were transferred onto polyvinylidene fluoride membranes (Merck Millipore, Billerica, MA, USA). After blocking in 5% non-fat milk (Bio-Rad, Hercules, CA, USA) for 1 h, the membranes were incubated overnight at 4° C. with primary antibody diluted in TBST containing 100 mM Tris-HCl (pH 7.5), 1.5 M NaCl, and 0.5% Tween-20 obtained from Sigma-Aldrich, to which 5% BSA and 0.1% sodium azide (Sigma-Aldrich) had been added. Specific primary antibodies to HIF-1α (1:1000), HIF-2α (1:1000), LDH-A (1:1000), LDH-B (1:1000), TLR-4 (1:1000), NF-κB (1:1000), VEGF (1:1000), α-tubulin (1:1000), Actin (1:1000), and GAPDH (1:5000). […]

NF-κb = experiment: Western blot of NF-κb in the tissue of retinal pigment epithelium; format: in vivo, mice; conditions: 2.5 mM (so in the source)
Experimental: as §1, with “(1:5000). The next day, the membranes were washed with TBST and incubated for 2 h with anti-rabbit secondary antibody (1:10000). Immunoblots were developed using a western blot detection reagent (Abclone, Seoul, Korea) and exposed to x-ray film (Agfa, Leverkusen, Germany) according to the manufacturer's protocol.” for “(1:5000).”

laser-induced AMD mice = experiment: Laser-induced age-related macular degeneration (AMD) animal model; format: in vivo, C57BL/6 mice
Experimental: Six-week-old female C57BL/6 mice (20-25 g) were purchased from Orient (Charles River Korea, Seoul, Korea). All animals were maintained in a 12-hour light/dark cycle (light on, 08:00) at 22° C.-25° C. with free access to food and water. The mice were placed individually in an induction chamber, and anesthesia was induced with 2% isoflurane (HANA PHARM CO., Seoul, Korea). The lesions were induced in each eye of the mice by laser photocoagulation (SDL405-700, SD Laser, China). The laser pulses were from blue laser (wavelength, 405 nm; SD Laser). Laser parameters were 100 μm spot size, 700 mw power and 1 s exposure time. A total of 15 mice were randomized into three groups: (i) not subjected to laser induction (n=3); (ii) subjected to laser burns and injected with the vehicle buffer (n=5); and (iii) CaLa, 2 mg/kg/day (B.I.D) (n=7). CaLa treatment was started the days after laser photocoagulation and was treated subcutaneously for 14 days. (33, 34)
The histopathologic examination of retinal lesions was performed 2 weeks after 2 mg/kg of CaLa was administered subcutaneously. The enucleated eyes were fixed with 4% paraformaldehyde (PFA) for 24 h at 4° C., and eyes obtained by removing the anterior segments were washed three times in phosphate-buffered saline. The fixed flat-mounts were dehydrated in a graded series of ethanol and embedded in paraffin. […] The choroidal lesion and neovascularization on the flat-mounts were observed by confocal microscopy (Carl Zeiss, Oberkochen, Germany).
Animals. […] Six-week-old C57BL mice were purchased from Orient (Charles River Korea, Seoul, Korea). All animals were maintained in a 12-hour light/dark cycle (light on, 08:00) at 22-25° C. with free access to food and water.
Calcium lactate was purchased from Sigma Aldrich (St. Louis, MO, USA).
Animal model for ocular disease. The mice were placed individually in an induction chamber, and anesthesia was induced with 2% isoflurane (HANA PHARM CO., Seoul, Korea). The laser-induced rupture of Bruch's membrane was induced in both eyes of mice by laser photocoagulation (SDL405-700, SD Laser, China). […]

[1] = tested on: Indomethacin-induced Crohn's disease rats; experiment: Crohn's disease model, oral Indomethacin; format: in vivo, Sprague-Dawley (SD) rats; conditions: Four-week after treatment
Experimental: (§2) Animals. […] Six-week old male Sprague-Dawley (SD) rats were obtained from Samtako Co. (Osan, Gyeonggi-do, Republic of Korea) and bred under specific-pathogen-free (SPF) conditions. All animals were maintained in a 12-hour light/dark cycle at 22-25° C. with free access to food and water.
(§3) Agents and animal model. To induce Crohn's disease and colitis, Indomethacin was purchased from Sigma Chemical (St. Louis, Missouri, USA) and was dissolved in saline. […] Two models of inflammatory bowel disease were used. Crohn's disease was induced by oral administration of Indomethacin (7 mg/kg), and colitis was induced by subcutaneous injections of Indomethacin (7 mg/kg) daily at a 24 h intervals (FIGS. 40 and 42).
(§4) Histological analysis. The fixed flat-mounts were dehydrated in a graded series of ethanol and embedded in paraffin.

[2] = tested on: Indomethacin-induced colitis rats; experiment: Colitis model, subcutaneous Indomethacin; format: in vivo, Sprague-Dawley (SD) rats; conditions: Four-week after treatment
Experimental: as §2, §3, §4

**Q.** For `CC(O)C(=O)[O-].CC(O)C(=O)[O-].[Ca+2]` (stereo not drawn) [calcium lactate], which “hypoxia-mediated factors (lactate dehydrogenase A), Western blot” value (lactate dehydrogenase A) is on record?
**A.** decreased

**Q.** What about the “inflammatory factor (NF-κb), Western blot” value (NF-κb) of the same compound?
**A.** decreased

**Q.** What about the “choroidal lesion (fluorescence, flat-mount)” value (laser-induced AMD mice; 2 mg/kg daily subcutaneous) of the same compound?
**A.** restored

**Q.** And the “choroidal neovascularization (fluorescence, flat-mount)” value (laser-induced AMD mice; 2 mg/kg daily subcutaneous)?
**A.** restored

**Q.** What about the “morphology of the retinal pigment epithelium (H&E)” value (laser-induced AMD mice; 2 mg/kg subcutaneous, choroidal flat-mount) of the same compound?
**A.** recovered

**Q.** What about the “transmural inflammation and linear ulceration in the intestinal tissues” value ([1]; 2 mg/kg daily subcutaneous) of the same compound?
**A.** clearly decreased

**Q.** What about the “morphology of intestinal tissues vs. normal control” value [1] of the same compound?
**A.** morphologically recovered

**Q.** And the “Superficial ulceration, polyp, and inflammation in the intestinal tissues” value ([2]; 2 mg/kg daily subcutaneous)?
**A.** clearly decreased

**Q.** And the “morphology of intestinal tissues vs. normal control” value [2]?
**A.** morphologically recovered
